Measured values reported in patent US10759766B2, “Certain chemical entities, compositions, and methods” (NeuPharma, Inc., priority 2011, dated 2020).

Key:
BRAF = BRAF (Homo sapiens (Human), UniProt P15056); test: Z′-LYTE kinase inhibition assay (Invitrogen), BRAF; assay type: biochemical; conditions: 1 μM compound, Z′-LYTE method; read-out: % inhibition at 1 μM against BRAF
Description: Inhibitory activities Inhibitory activities of compounds against BRAF, and BRAF V600E were measured by Invitrogen using Z′-LYTE® Method as briefly described in the following. 4× Test compounds are dissolved in 1% DMSO. […] ATP solutions are diluted to a 4×ATP working concentration in Kinase Buffer (50 mM HEPES pH 7.5, 0.01% BRIJ-35, 10 mM MgCl2, 1 mM EGTA). Reaction started by 30-second shaking of mixture consisting of 2.5 μL 4× test compound, […] and 2.5 μL 4×ATP Solution on Bar-coded Corning, low volume NBS, black 384-well plate (Corning Cat. #3676). Then the mixture was incubated for 60-minute at room temperature for the kinase reaction, followed by addition of 5 μL of a 1:1024 dilution of development reagent A and 30-second plate shake. The mixture was then incubated for another 60-minute at room temperature for development reaction. Fluorescence was read by plate reader. IC50 was calculated by plotting the concentration of compound vs the percentage of inhibition in treated wells using GraphPad Prism 5.

BRAF V600E = BRAF V600E (Homo sapiens (Human), UniProt P15056, V600E); test: Z′-LYTE kinase inhibition assay (Invitrogen), BRAF V600E; assay type: biochemical; conditions: Z′-LYTE method; for inhibition at 1 µM: 1 μM compound, read-out: % inhibition at 1 μM against BRAF V600E; for IC50: read-out: IC50 against BRAF V600E
Method in brief: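 FRET-based Z′-LYTE peptide phosphorylation format in 50 mM HEPES pH 7.5, 0.01% BRIJ-35, 10 mM MgCl2, 1 mM EGTA with ATP. Kinase reaction 60 min at room temperature, then protease development step 60 min at room temperature before fluorescence read. IC50 from compound concentration versus percent inhibition.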

KDR (VEGFR2) = KDR (VEGFR2) (Homo sapiens (Human), UniProt P35968); test: Z′-LYTE kinase inhibition assay (Invitrogen), KDR; assay type: biochemical; conditions: Z′-LYTE method; for inhibition at 1 µM: 1 μM compound, read-out: % inhibition at 1 μM against KDR; for IC50: read-out: IC50 against KDR
Method in brief: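 Z′-LYTE FRET assay: 10 μL reactions with 0.5–11.7 ng KDR and 2 μM Tyr 01 peptide in 50 mM HEPES pH 7.5, 10 mM MgCl2, 1 mM EGTA, 0.01% BRIJ-35, 1 h at room temperature. Development Reagent B (1:256) added for 60 min, fluorescence read; IC50 from concentration–inhibition curves.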

A375 cells = test: Inhibition of cancer cell growth, MTT assay, A375; assay type: cell-based; conditions: Homo sapiens, A-375, 72 h exposure
Method in brief: (§1)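 IC50 derived from percent growth inhibition versus concentration, tested in triplicate. Growth inhibition came from MTT read at 570 nm after 72 h drug exposure, relative to viable cells at dosing. Cells (about 4000/well, RPMI 1640 + 10% FBS) adhered 24 h before treatment; final DMSO 1%.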

A549 cells = test: Inhibition of cancer cell growth, MTT assay, A549; assay type: cell-based; conditions: Homo sapiens, A549, 72 h exposure
Method in brief: as §1

BRAF, sequence (P15056 whole entry): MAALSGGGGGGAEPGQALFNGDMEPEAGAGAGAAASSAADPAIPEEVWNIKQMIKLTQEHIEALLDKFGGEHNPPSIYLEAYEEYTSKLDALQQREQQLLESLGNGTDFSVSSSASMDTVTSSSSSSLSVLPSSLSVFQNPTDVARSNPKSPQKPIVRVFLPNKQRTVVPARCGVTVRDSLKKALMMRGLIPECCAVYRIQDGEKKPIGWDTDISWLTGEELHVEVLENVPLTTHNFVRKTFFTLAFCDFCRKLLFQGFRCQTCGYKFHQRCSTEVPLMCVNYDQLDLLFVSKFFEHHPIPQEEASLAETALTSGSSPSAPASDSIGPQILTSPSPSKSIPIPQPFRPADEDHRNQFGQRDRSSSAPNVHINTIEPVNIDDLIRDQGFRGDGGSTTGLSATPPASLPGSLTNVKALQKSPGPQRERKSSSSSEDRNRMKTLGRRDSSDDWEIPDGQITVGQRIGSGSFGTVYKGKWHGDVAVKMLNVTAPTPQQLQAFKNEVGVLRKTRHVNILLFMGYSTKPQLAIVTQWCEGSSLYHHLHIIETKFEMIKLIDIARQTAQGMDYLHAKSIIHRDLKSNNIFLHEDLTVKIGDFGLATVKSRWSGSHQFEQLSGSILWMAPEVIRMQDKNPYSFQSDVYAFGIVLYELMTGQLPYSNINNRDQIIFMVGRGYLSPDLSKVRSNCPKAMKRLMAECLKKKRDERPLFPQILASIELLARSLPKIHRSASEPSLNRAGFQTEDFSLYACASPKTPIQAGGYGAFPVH
KDR (VEGFR2), sequence (P35968 20-1356): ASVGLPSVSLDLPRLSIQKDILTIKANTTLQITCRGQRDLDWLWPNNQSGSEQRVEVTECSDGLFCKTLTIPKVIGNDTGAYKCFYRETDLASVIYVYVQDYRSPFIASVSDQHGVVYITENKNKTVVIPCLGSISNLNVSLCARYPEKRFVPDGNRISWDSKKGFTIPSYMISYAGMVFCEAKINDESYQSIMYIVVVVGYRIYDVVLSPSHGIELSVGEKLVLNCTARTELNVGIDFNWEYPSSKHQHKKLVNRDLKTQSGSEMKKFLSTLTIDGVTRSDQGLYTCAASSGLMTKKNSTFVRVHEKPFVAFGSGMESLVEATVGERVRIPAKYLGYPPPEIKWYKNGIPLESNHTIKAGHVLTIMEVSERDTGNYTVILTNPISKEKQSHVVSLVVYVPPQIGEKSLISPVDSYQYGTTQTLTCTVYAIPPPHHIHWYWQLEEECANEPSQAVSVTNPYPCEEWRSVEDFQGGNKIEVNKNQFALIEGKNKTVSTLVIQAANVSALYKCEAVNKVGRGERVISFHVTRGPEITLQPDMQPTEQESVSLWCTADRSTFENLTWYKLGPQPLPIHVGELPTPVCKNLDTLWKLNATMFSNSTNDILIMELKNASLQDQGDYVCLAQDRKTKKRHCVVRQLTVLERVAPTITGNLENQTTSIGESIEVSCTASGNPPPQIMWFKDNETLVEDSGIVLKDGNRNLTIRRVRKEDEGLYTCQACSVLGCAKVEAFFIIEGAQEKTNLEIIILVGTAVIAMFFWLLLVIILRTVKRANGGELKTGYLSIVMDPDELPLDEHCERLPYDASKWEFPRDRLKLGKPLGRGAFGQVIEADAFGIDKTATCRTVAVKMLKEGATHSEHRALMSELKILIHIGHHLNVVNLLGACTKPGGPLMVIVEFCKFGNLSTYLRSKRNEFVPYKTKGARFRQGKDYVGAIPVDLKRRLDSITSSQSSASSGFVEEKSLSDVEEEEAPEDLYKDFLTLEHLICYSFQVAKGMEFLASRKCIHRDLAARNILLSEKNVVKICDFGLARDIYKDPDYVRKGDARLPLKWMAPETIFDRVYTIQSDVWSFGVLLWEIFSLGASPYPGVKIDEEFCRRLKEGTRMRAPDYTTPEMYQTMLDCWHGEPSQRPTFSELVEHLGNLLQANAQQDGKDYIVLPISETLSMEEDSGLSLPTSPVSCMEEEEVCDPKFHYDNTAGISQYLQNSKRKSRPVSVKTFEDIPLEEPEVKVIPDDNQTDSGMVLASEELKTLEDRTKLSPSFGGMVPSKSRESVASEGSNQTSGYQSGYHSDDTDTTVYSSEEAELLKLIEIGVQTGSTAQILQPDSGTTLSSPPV
BRAF V600E, sequence (P15056 whole entry V600E): as the sequence (P15056 whole entry) above, with V600E counted along it

Row | Compound | inhibition at 1 µM (BRAF) [%] | inhibition at 1 µM (BRAF V600E) [%] | IC50 (BRAF V600E) [nM] | inhibition at 1 µM (KDR (VEGFR2)) [%] | IC50 (KDR (VEGFR2)) [nM] | IC50 (A375 cells) [nM] | IC50 (A549 cells) [nM]
1 | O=C(Nc1cccc(C(=O)c2ccc3nccnc3c2)c1)Nc1cccc(C(F)(F)F)c1 [Compound C009, 1-(3-(quinoxaline-6-carbonyl)phenyl)-3-(3-(trifluoromethyl)phenyl)urea] | 70 to 89 | 70 to 89 | < 100 | > 89 | < 100 | > 5000 | 2000 to 5000
2 | O=C(Nc1cccc(C(=O)c2ccc3ncc(-c4cn[nH]c4)nc3c2)c1)Nc1ccc(Cl)c(C(F)(F)F)c1 [Compound C029, 1-(3-(3-(1H-pyrazol-4-yl)quinoxaline-6-carbonyl)phenyl)-3-(4-chloro-3-(trifluoromethyl)phenyl)urea] | 70 to 89 | > 89 | < 100 | > 89 | < 100 | 1000 to 5000 | 2000 to 5000
3 | O=C(Nc1cccc(F)c1)Nc1cccc(C(=O)c2ccc3nccnc3c2)c1 [Compound C001, 1-(3-fluorophenyl)-3-(3-(quinoxaline-6-carbonyl)phenyl)urea] | 70 to 89 | > 89 | – | < 70 | – | 1000 to 5000 | < 2000
4 | O=C(Nc1cccc(C(=O)c2ccc3nccnc3c2)c1)Nc1cc(C(F)(F)F)ccc1Cl [Compound C002, 1-(2-chloro-5-(trifluoromethyl)phenyl)-3-(3-(quinoxaline-6-carbonyl)phenyl)urea] | 70 to 89 | > 89 | – | < 70 | – | 1000 to 5000 | < 2000
5 | O=C(Nc1cccc(C(=O)c2ccc3nccnc3c2)c1)Nc1ccc(Cl)c(C(F)(F)F)c1 [Compound C004, 1-(4-chloro-3-(trifluoromethyl)phenyl)-3-(3-(quinoxaline-6-carbonyl)phenyl)urea] | 70 to 89 | > 89 | < 100 | 70 to 89 | < 100 | 1000 to 5000 | < 2000
6 | O=C(Nc1cccc(C(F)(F)F)c1)Nc1ccc(F)c(C(=O)c2ccc3nccnc3c2)c1 [Compound C014, 1-(4-fluoro-3-(quinoxaline-6-carbonyl)phenyl)-3-(3-(trifluoromethyl)phenyl)urea] | < 70 | > 89 | < 100 | 70 to 89 | < 100 | < 1000 | < 2000
7 | O=C(Nc1cccc(F)c1)Nc1cc(F)c(F)c(C(=O)c2ccc3ncc(N4CCOCC4)nc3c2)c1 [Compound C039, 1-(3,4-difluoro-5-(3-morpholinoquinoxaline-6-carbonyl)phenyl)-3-(3-fluorophenyl)urea] | 70 to 89 | > 89 | – | 70 to 89 | – | 1000 to 5000 | 2000 to 5000
8 | O=C(Nc1ccc(C(F)(F)F)cc1)Nc1cc(F)cc(C(=O)c2ccc3ncc(N4CCOCC4)nc3c2)c1 [Compound C048, 1-(3-fluoro-5-(3-morpholinoquinoxaline-6-carbonyl)phenyl)-3-(4-(trifluoromethyl)phenyl)urea] | – | > 89 | – | < 70 | – | < 1000 | 2000 to 5000
9 | O=C(Nc1cccc(F)c1)Nc1cc(F)c(F)c(C(=O)c2ccc3nccnc3c2)c1 [Compound C024, 1-(3,4-difluoro-5-(quinoxaline-6-carbonyl)phenyl)-3-(3-fluorophenyl)urea] | – | > 89 | – | 70 to 89 | – | > 5000 | < 2000

More lines, now with the values ahead:

Row | inhibition at 1 µM (BRAF) [%] | inhibition at 1 µM (BRAF V600E) [%] | IC50 (BRAF V600E) [nM] | inhibition at 1 µM (KDR (VEGFR2)) [%] | IC50 (KDR (VEGFR2)) [nM] | IC50 (A375 cells) [nM] | IC50 (A549 cells) [nM] | Compound
10 | 70 to 89 | > 89 | < 100 | > 89 | < 100 | 1000 to 5000 | 2000 to 5000 | O=C(Nc1cccc(C(=O)c2ccc3ncc(N4CCCC4)nc3c2)c1)c1cccc(C(F)(F)F)c1 [Compound C122, N-(3-(3-(pyrrolidin-1-yl)quinoxaline-6-carbonyl)phenyl)-3-(trifluoromethyl)benzamide]
11 | < 70 | 70 to 89 | – | < 70 | – | > 5000 | < 2000 | O=C(Nc1cccc(C(=O)c2ccc3nccnc3c2)c1)c1ccc(Cl)c(C(F)(F)F)c1 [Compound C111, 4-chloro-N-(3-(quinoxaline-6-carbonyl)phenyl)-3-(trifluoromethyl)benzamide]
12 | < 70 | 70 to 89 | – | < 70 | – | < 1000 | > 5000 | O=C(c1cccc(NC(=O)c2cc(C(F)(F)F)ccc2Cl)c1)c1ccc2nccnc2c1 [Compound C106, 2-chloro-N-(3-(quinoxaline-6-carbonyl)phenyl)-5-(trifluoromethyl)benzamide]
13 | < 70 | 70 to 89 | > 100 | > 89 | < 100 | < 1000 | 2000 to 5000 | O=C(Nc1ccc(F)c(C(=O)c2ccc3ncc(N4CCOCC4)nc3c2)c1)c1ccc(Cl)c(C(F)(F)F)c1 [Compound C134, 4-chloro-N-(4-fluoro-3-(3-morpholinoquinoxaline-6-carbonyl)phenyl)-3-(trifluoromethyl)benzamide]
14 | 70 to 89 | > 89 | – | 70 to 89 | – | < 1000 | 2000 to 5000 | O=C(Nc1ccc(Cl)c(Cl)c1)Nc1ccc(F)c(C(=O)c2ccc3nccnc3c2)c1 [Compound C076, 1-(3,4-dichlorophenyl)-3-(4-fluoro-3-(quinoxaline-6-carbonyl)phenyl)urea]
15 | > 89 | > 89 | – | 70 to 89 | – | > 5000 | > 5000 | O=C(Nc1cncc(F)c1)Nc1ccc(F)c(C(=O)c2ccc3ncc(N4CCOCC4)nc3c2)c1 [Compound C079, 1-(4-fluoro-3-(3-morpholinoquinoxaline-6-carbonyl)phenyl)-3-(5-fluoropyridin-3-yl)urea]
16 | > 89 | > 89 | – | > 89 | < 100 | – | 2000 to 5000 | O=C(Nc1ccc(F)cc1)Nc1ccc(F)c(C(=O)c2ccc3ncc(N4CCNCC4)nc3c2)c1 [Compound C100, 1-(4-fluoro-3-(3-(piperazin-1-yl)quinoxaline-6-carbonyl)phenyl)-3-(4-fluorophenyl)urea]
17 | – | > 89 | – | < 70 | – | 1000 to 5000 | 2000 to 5000 | O=C(Nc1cc(F)cc(C(=O)c2ccc3nccnc3c2)c1)Nc1ccc(F)c(Cl)c1 [Compound C067, 1-(3-chloro-4-fluorophenyl)-3-(3-fluoro-5-(quinoxaline-6-carbonyl)phenyl)urea]
18 | – | > 89 | – | 70 to 89 | – | 1000 to 5000 | > 5000 | O=C(Nc1cc(F)c(F)c(C(=O)c2ccc3nccnc3c2)c1)c1cccc(C(F)(F)F)c1 [Compound C128, N-(3,4-difluoro-5-(quinoxaline-6-carbonyl)phenyl)-3-(trifluoromethyl)benzamide]
19 | – | > 89 | – | 70 to 89 | – | 1000 to 5000 | 2000 to 5000 | O=C(Nc1cc(F)cc(Cl)c1)Nc1ccc(F)c(C(=O)c2ccc3ncc(N4CCOCC4)nc3c2)c1 [Compound C059, 1-(3-chloro-5-fluorophenyl)-3-(4-fluoro-3-(3-morpholinoquinoxaline-6-carbonyl)phenyl)urea]
20 | – | > 89 | – | < 70 | – | 1000 to 5000 | 2000 to 5000 | O=C(Nc1cc(F)cc(Cl)c1)Nc1cc(F)cc(C(=O)c2ccc3ncc(N4CCOCC4)nc3c2)c1 [Compound C060, 1-(3-chloro-5-fluorophenyl)-3-(3-fluoro-5-(3-morpholinoquinoxaline-6-carbonyl)phenyl)urea]
21 | – | > 89 | – | 70 to 89 | – | 1000 to 5000 | 2000 to 5000 | O=C(Nc1cccc(C(=O)c2ccc3ncc(N4CCOCC4)nc3c2)c1)c1ccc(Cl)c(C(F)(F)F)c1 [Compound C120, 4-chloro-N-(3-(3-morpholinoquinoxaline-6-carbonyl)phenyl)-3-(trifluoromethyl)benzamide]
